Results as given in patent publication US12215133B2 (BrightGene Bio-Medical Technology Co., Ltd., priority 2021, dated 2025).
Marks after values point to notes of the source that are not given here.

Legend:
GLP-1 receptor = target: T1, GLP-1 receptor (Homo sapiens, UniProt P43220); assay: cAMP experiment, GLP-1 receptor (HEK293 host cell line); assay type: cell-based; conditions: HEK293 host cells
T1 construct: expressed in transfected cells; host or cells: HEK293 cell line

db/db mice = assay: Inhibitory effect of BG128 on hyperglycemia in db/db mice (Experimental Example 3); assay type: in vivo; conditions: for Insulin in serum: 3 days after the last administration; for Insulin in serum / Fasting blood glucose: n = 11; for non-fasting blood glucose after the first administration: FIG. 11
GIP receptor = target: T2, GIP receptor (Homo sapiens, UniProt P48546); assay: cAMP experiment, GIP receptor (CHO host cell line); assay type: cell-based; conditions: CHO host cells
T2 construct: expressed in transfected cells; host or cells: CHO cell line
T2 sequence (P48546 22-466): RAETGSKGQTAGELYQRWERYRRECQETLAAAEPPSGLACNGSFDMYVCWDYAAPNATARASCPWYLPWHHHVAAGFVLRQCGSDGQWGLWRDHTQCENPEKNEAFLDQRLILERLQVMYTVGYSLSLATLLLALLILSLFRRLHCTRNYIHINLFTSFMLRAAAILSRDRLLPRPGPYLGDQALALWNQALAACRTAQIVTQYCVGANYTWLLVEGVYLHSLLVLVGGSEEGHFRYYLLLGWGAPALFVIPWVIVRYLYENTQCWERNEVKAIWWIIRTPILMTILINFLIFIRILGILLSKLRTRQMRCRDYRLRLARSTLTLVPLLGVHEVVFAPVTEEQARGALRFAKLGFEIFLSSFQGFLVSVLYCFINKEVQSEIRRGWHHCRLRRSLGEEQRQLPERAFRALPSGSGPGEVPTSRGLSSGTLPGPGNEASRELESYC

[1] = 0.05 mg/kg s.c. once every three days, anticoagulated whole blood, end of experiment, Mean ± SEM

T1 sequence (P43220 24-463, species assumed): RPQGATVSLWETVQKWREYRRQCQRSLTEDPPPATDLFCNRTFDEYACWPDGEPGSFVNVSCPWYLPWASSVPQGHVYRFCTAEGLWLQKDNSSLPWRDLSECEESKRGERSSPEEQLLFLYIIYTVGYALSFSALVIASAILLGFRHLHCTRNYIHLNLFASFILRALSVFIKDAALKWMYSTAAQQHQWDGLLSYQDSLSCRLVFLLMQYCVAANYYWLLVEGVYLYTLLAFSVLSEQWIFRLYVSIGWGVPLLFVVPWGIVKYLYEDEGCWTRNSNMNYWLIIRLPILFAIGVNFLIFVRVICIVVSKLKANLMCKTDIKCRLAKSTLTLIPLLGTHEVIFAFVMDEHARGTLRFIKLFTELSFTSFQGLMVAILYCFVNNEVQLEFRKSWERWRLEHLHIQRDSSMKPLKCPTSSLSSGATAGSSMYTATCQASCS

**Q.** Which results are given for `CNC(CCCCNC(=O)COCCOCCOCCNC(=O)COCCOCCOCCNC(=O)CCC(NC(=O)CC(=O)O)C(=O)O)C(N)=O` (centres unmarked) [BG128]?
**A.** EC50 (GLP-1 receptor): 0.11 nM; Insulin in serum (db/db mice; 0.05 mg/kg s.c. once every three days, Mean ± SD): 37649.0 ± 3597.0ª nIU/mL; Fasting blood glucose (db/db mice; 0.05 mg/kg s.c. once every three days, Day 0 (before administration, baseline), Mean ± SD): 23.18 ± 1.15 mmol/L; Fasting blood glucose (db/db mice; 0.05 mg/kg s.c. once every three days, Day 7, Mean ± SD): 21.68 ± 1.77^b mmol/L; Fasting blood glucose (db/db mice; 0.05 mg/kg s.c. once every three days, Day 13, Mean ± SD): 21.68 ± 1.11 mmol/L; Fasting blood glucose (db/db mice; 0.05 mg/kg s.c. once every three days, Day 19, Mean ± SD): 24.30 ± 1.41^c mmol/L; Fasting blood glucose (db/db mice; 0.05 mg/kg s.c. once every three days, Day 25, Mean ± SD): 18.32 ± 1.37^c mmol/L; Fasting blood glucose (db/db mice; 0.05 mg/kg s.c. once every three days, Day 31, Mean ± SD): 20.15 ± 1.91^c mmol/L; HbA1C (db/db mice; [1]): 5.18 ± 0.23; HbA1C% (db/db mice; [1]): 4.07 ± 0.13ª %; Insulin in serum (db/db mice; 0.15 mg/kg s.c. once every three days, Mean ± SD): 30897.0 ± 5634.0^a nIU/mL; Fasting blood glucose (db/db mice; 0.15 mg/kg s.c. once every three days, Day 0 (before administration, baseline), Mean ± SD): 23.17 ± 1.19 mmol/L; Fasting blood glucose (db/db mice; 0.15 mg/kg s.c. once every three days, Day 7, Mean ± SD): 22.78 ± 1.11^a mmol/L; Fasting blood glucose (db/db mice; 0.15 mg/kg s.c. once every three days, Day 13, Mean ± SD): 21.58 ± 1.13 mmol/L; Fasting blood glucose (db/db mice; 0.15 mg/kg s.c. once every three days, Day 19, Mean ± SD): 26.14 ± 1.05^b mmol/L; Fasting blood glucose (db/db mice; 0.15 mg/kg s.c. once every three days, Day 25, Mean ± SD): 15.70 ± 1.50^c mmol/L; Fasting blood glucose (db/db mice; 0.15 mg/kg s.c. once every three days, Day 31, Mean ± SD): 20.38 ± 1.87^c mmol/L; HbA1C% (db/db mice; 0.15 mg/kg s.c. once every three days, anticoagulated whole blood, end of experiment, Mean ± SEM): 4.04 ± 0.14ª %; Insulin in serum (db/db mice; 0.5 mg/kg s.c. once every three days, Mean ± SD): 32774.0 ± 6290.0^a nIU/mL; Fasting blood glucose (db/db mice; 0.5 mg/kg s.c. once every three days, Day 0 (before administration, baseline), Mean ± SD): 22.99 ± 1.35 mmol/L; Fasting blood glucose (db/db mice; 0.5 mg/kg s.c. once every three days, Day 7, Mean ± SD): 15.54 ± 1.49^c mmol/L; Fasting blood glucose (db/db mice; 0.5 mg/kg s.c. once every three days, Day 13, Mean ± SD): 16.79 ± 1.20^c mmol/L; Fasting blood glucose (db/db mice; 0.5 mg/kg s.c. once every three days, Day 19, Mean ± SD): 13.26 ± 1.91^c mmol/L; Fasting blood glucose (db/db mice; 0.5 mg/kg s.c. once every three days, Day 25, Mean ± SD): 11.85 ± 1.74^c mmol/L; Fasting blood glucose (db/db mice; 0.5 mg/kg s.c. once every three days, Day 31, Mean ± SD): 16.41 ± 1.68^c mmol/L; non-fasting blood glucose after the first administration (db/db mice; BG128 dose groups 0.05, 0.15, 0.5 mg/kg s.c., 0-72 h): decreased rapidly within 24 h after the first administration; body weight during the first administration (db/db mice; Tirzepatide 0.15 mg/kg, BG128 0.05, 0.15, 0.5 mg/kg s.c., FIG. 8 and 9): positively correlated with the administration dose; food intake after the first administration vs db/db-ND group (db/db mice; Tirzepatide 0.15 mg/kg, BG128 0.05, 0.15, 0.5 mg/kg s.c., FIG. 10): positively correlated with the administration dose; animal body weight loss rate compared with Tirzepatide (db/db mice; equal dose (0.15 mg/kg s.c.), FIG. 8 and 9): better than that of Tirzepatide administration group; decrease in food intake compared with Tirzepatide (db/db mice; equal dose (0.15 mg/kg s.c.), FIG. 10): significantly greater than that of the positive control group Tirzepatide; non-fasting blood glucose after the first administration (db/db mice; high-dose group 0.5 mg/kg s.c., 24 h-72 h after administration): maintained in a relatively low range; EC50 (GIP receptor): 0.279 nM
